Data taken from publication PMC6780165, “Verruculosins A–B, New Oligophenalenone Dimers from the Soft Coral-Derived Fungus Talaromyces verruculosus” (Marine Drugs, 2019).

Key:
[1] = test system: human non-small cell lung carcinoma (NCL-H460) cells; parameters: method as in ref 8, ref 9; conditions: cited from earlier work
[2] = test system: human breast cancer (MCF-7) cells; parameters: method as in ref 8, ref 9; conditions: cited from earlier work
[3] = test system: human cervical cancer (Hela) cells; parameters: method as in ref 8, ref 9; conditions: cited from earlier work
EGFR tyrosine kinase = EGFR tyrosine kinase (Homo sapiens, UniProt P00533); experiment: EGFR tyrosine kinase inhibitory activity (ELISA); format: biochemical; conditions: poly(Glu, Tyr)4:1 substrate, 10 μM ATP, 60 min at 37 °C, read-out: Anti-EGFR IC50 (µM) ± SD
Chain of EGFR tyrosine kinase (P00533 25-1210): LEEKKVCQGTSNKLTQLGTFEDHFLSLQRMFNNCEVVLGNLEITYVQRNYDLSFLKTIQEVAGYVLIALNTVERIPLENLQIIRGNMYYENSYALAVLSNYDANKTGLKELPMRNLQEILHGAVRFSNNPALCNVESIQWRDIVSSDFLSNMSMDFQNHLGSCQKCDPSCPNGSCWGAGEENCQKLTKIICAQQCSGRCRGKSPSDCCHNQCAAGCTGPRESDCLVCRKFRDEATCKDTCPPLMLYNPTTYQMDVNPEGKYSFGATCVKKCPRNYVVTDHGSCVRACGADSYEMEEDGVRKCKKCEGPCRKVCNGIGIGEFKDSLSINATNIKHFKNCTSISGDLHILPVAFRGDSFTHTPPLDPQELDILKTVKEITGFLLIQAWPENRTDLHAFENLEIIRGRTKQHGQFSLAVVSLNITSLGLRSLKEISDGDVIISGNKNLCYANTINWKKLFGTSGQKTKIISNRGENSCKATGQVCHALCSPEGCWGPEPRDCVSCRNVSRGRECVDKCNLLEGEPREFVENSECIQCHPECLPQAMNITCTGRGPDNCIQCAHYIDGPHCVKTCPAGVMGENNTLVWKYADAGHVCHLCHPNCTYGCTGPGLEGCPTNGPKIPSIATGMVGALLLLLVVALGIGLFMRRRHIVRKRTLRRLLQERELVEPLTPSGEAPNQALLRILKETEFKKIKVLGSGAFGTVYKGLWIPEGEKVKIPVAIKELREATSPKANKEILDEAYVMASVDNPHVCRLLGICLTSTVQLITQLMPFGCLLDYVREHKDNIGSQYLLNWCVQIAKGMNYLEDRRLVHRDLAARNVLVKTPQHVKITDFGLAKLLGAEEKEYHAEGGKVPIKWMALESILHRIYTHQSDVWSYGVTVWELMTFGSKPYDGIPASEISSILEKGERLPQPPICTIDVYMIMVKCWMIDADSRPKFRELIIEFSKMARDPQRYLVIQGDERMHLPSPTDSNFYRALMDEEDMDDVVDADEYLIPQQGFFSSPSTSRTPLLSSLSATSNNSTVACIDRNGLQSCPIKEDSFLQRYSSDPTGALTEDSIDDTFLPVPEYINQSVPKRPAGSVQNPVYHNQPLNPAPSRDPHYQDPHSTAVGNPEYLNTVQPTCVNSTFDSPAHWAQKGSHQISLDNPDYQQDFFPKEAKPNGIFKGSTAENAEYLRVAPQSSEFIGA
Method: The EGFR tyrosine kinase inhibitory activity was tested using enzyme-linked immunosorbent assay (ELISA). The compounds were dissolved in dimethyl sulfoxide (DMSO) buffer solution and were then distributed to a 96-well plate pre-coated with poly(Glu, Tyr)4:1 as a substrate. Each well was treated with 50 μL of 10 μM ATP solution diluted with reaction buffer and the reaction was started by the addition of EGFR tyrosine kinase. After 60 min of incubation at 37 °C, the plate was washed three times with phosphate buffered saline containing 0.1% Tween 20 (PBST). Next, antiphosphotyrosine (PY99) antibody 100 μL was added. After incubation for 30 min at 37 °C, the plate was washed three times and goat anti-mouse IgG horseradish peroxidase was added. The plate was reincubated at 37 °C for 30 min and washed as before. Lastly, 100 μL of color development solution was added and the plate was incubated at room temperature until color emerged. The reaction was terminated by adding 50 μL of 2 M H2SO4, and the absorbance was measured on the Molecular Devices SpectraMax 190 microplatereader at 490 nm [20]. The known EGFR inhibitor, afatibib, was utilized as a positive control, and 0.1% (v/v) DMSO was used as a negative control.

CDC25B = target: T1, CDC25B (Homo sapiens, UniProt P30305); experiment: CDC25B enzymatic activity assay (OMFP dephosphorylation); format: biochemical; conditions: OMFP substrate 10 μM, 100 nM CDC25B, 30 °C, pH 8.0; read-out: Anti-CDC25B IC50 (µM) ± SD
T1 sequence (P30305 1-580): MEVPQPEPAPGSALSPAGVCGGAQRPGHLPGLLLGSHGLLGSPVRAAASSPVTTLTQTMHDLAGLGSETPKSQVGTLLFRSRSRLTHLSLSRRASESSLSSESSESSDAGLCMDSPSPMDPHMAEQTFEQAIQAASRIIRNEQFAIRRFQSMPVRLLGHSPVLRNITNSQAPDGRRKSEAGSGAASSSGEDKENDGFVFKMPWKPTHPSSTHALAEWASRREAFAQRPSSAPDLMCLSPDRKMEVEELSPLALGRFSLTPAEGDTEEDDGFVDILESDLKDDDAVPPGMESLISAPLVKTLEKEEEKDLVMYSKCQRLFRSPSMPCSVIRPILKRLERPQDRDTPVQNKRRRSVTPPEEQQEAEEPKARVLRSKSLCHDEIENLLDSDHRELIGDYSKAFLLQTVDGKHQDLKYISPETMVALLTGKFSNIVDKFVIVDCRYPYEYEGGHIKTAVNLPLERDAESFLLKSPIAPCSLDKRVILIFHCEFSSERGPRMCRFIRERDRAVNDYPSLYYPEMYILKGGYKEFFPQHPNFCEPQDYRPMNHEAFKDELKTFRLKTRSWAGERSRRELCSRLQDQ
Method: The enzymatic activity of the CDC25B was determined at 30 °C by monitoring the dephosphorylation of 3-O-methylfluorescein phosphate (OMFP), which was used as a substrate for the CDC25B and can be monitored at a 535 nm emission wavelength and 485 nm excitation wavelength in the EnVisionmultilabel plate reader. The assay was measured in a 100 μL mixture system containing 50 mM Tris-HCl, pH 8.0, 50 mM NaCl, 10 μM OMFP, 100 nM CDC25B, 1 mM dithiothreitol (DTT), 1 mM ethylene diamine tetraacetic acid (EDTA), 1% glycerin, and 2 mg/L compound. The initial rate of the dephosphorylation was determined using the early linear region of the enzymatic reaction kinetic curve. DMSO and Na3VO4 were used as negative and positive controls, respectively.

[4] = test system: mitochondrial respiration; parameters: method as in PMID 7122988; conditions: cited from earlier work
[5] = test system: murine leukemia L-1210 cells; parameters: method as in ref 5, ref 6; conditions: cited from earlier work

Compound: Bascillosporin C
- cytotoxicity against NCL-H460 cells (in words) [1]: moderately active
- cytotoxicity against MCF-7 cells (in words) [2]: moderately active
- activity against Hela cells (in words) [3]: moderately active

Compound: Bascillosporin H
- cytotoxicity against NCL-H460 cells (in words) [1]: moderately active
- cytotoxicity against MCF-7 cells (in words) [2]: moderately active
- activity against Hela cells (in words) [3]: moderately active

Compound: CC(=O)OC1C2C(=O)c3c(C)cc(O)c4c3C1(COC4=O)c1c(O)c3c4c(c(O)cc(C)c4c12)C(=O)OC3=O (centres unmarked) [Compound 5, xenoclauxin]
- IC50 (EGFR tyrosine kinase): 0.24 ± 0.17 µM
- IC50 (CDC25B): 0.26 ± 0.06 µM

Compound: Bascillosporin A
- cytotoxicity against NCL-H460 cells (in words) [1]: high cytotoxicity
- cytotoxicity against MCF-7 cells (in words) [2]: high cytotoxicity

Compound: COC1OC(=O)c2c(O)cc(C)c3c4c(c(O)c1c23)C12COC(=O)c3c(O)cc(C)c(c31)C(=O)C4C2OC(C)=O (centres unmarked) [Compound 3, bacillisporin F]
- IC50 (EGFR tyrosine kinase): 4.41 ± 2.32 µM
- IC50 (CDC25B): 0.4 ± 0.02 µM

Compound: [Na+].[Na+].[Na+].[O]=[V]([O-])([O-])[O-] [Na3VO4, reference compound]
- IC50 (CDC25B): 0.52 ± 0.02 µM

Compound: COC12c3c(C)cc(O)c4c3C3=C(OC(C)(O)CC3OC4=O)C1C13COC(=O)c4c(O)cc(C)c(c41)C(=O)C2C3OC(C)=O (centres unmarked) [Compound 1, verruculosin A]
- IC50 (EGFR tyrosine kinase): 0.92 ± 0.25 µM
- IC50 (CDC25B): 0.38 ± 0.03 µM

Compound: Bascillosporin B [Bascillosporins B]
- cytotoxicity against NCL-H460 cells (in words) [1]: moderately active
- cytotoxicity against MCF-7 cells (in words) [2]: moderately active
- activity against Hela cells (in words) [3]: moderately active

Compound: COC12c3c(C)cc(O)c4c(=O)occ(c34)C(=O)C1C13COC(=O)c4c(O)cc(C)c(c41)C(=O)C2C3OC(C)=O (centres unmarked) [Compound 4, duclauxin]
- inhibitory effects on mitochondrial respiration (in words) [4]: strong inhibitory effects
- activity against murine leukemia L-1210 cells (in words) [5]: highly active
- IC50 (EGFR tyrosine kinase): 0.95 ± 0.64 µM
- IC50 (CDC25B): 0.75 ± 0.18 µM

Compound: COC(=O)CC1OC(=O)c2c(O)cc(C)c3c2C1=C(O)C1C24COC(=O)c5c(O)cc(C)c(c52)C(=O)C(C4OC(C)=O)C31OC (centres unmarked) [Compound 2, verruculosin B]
- IC50 (EGFR tyrosine kinase): 1.22 ± 0.53 µM
